Reference: US20230346793A1, “Compositions and Methods for Treating SARS-CoV-2” (priority 2020, published 2023)

Tests used:
calmodulin = calmodulin (Homo sapiens, UniProt P0DP23); conditions: Winkler 1987; Zimmer and Hofmann 1984; Reiermann and Rüegg 1986; cited from earlier work
SARS-CoV-2 = assay: microbe, parasite or virus in culture; type: cell-based; conditions: for EC50: Severe acute respiratory syndrome coronavirus 2, Vero C1008, in Primates, read-out: EC50 (effective concentration that gave half-maximal response), inhibition of SARS-CoV-2 infection; for inhibition of SARS-CoV-2 infection: VeroE6 plaque reduction assay, dose-dependent analysis

Row | Compound | inhibition of calmodulin (calmodulin) | EC50 (SARS-CoV-2) | inhibition of SARS-CoV-2 infection (SARS-CoV-2)
1 | CC(C)COCC(CN(Cc1ccccc1)c1ccccc1)N1CCCC1 (centres unmarked) [BPD, Bepridil] | inhibit calmodulin | 7.13 µM | strong inhibition of SARS-CoV-2 infection in a dose-dependent manner
2 | CN1CCN(CCCN2c3ccccc3Sc3ccc(C(F)(F)F)cc32)CC1 [TFP, Trifluoperazine] |  | 7.7 µM | potently inhibited SARS-CoV-2 infection in a dose-dependent fashion
